Experimental data taken from article PMC4841536, “Characterization of the Anti-HCV Activities of the New Cyclophilin Inhibitor STG-175” (PLoS ONE, 2016).
pEC50, pIC50: −log10 of the molar value.

Key:
Human recombinant CypD = target: T1, Human recombinant CypD (Homo sapiens, UniProt P30405); assay: α-chymotrypsin-coupled PPIase assay, CypD isomerase activity; assay type: biochemical; conditions: IC50, neutralization of the isomerase activity of CypD, 5°C, 10 concentrations 0.05–1000 nM
T1 construct: purchased Atgen
Method: Inhibition of CypA and CypD isomerase activities were quantified using a α-chymotrypsin-coupled assay adapted to a 96-well plate format. Human recombinant CypA or CypD (Atgen) was dissolved to 10 nM in PPIases buffer (50 mM Hepes, 100 mM NaCl, 1 mg/ml bovine serum albumin, 1 mg/ml α-chymotrypsin; pH 8). Succinyl-AAPF-pNA peptide substrate (Sigma) was dissolved to 3.2 mM in LiCl/trifluoroethanol. Each CypI was prepared at 10 concentrations in DMSO, then diluted into CypA/D PPIase buffer to 0.05–1000 nM. Incubations were performed at 5°C. Ninety five μL of reaction mix was added to 5 μL peptide in 96-wells and OD405 nm measured at 6-sec intervals for 6 min using a Biotek Synergy H4 plate reader. Data were fitted with Graphpad Prism 6.0 to acquire first-order rate constants, which were calculated by subtracting the rate constant from uncatalyzed reactions (no CypA/D). The catalytic rate constants were plotted as a function of inhibitor concentration to obtain IC50s.
The inhibition of the isomerase activities of CypA and CypD were measured with 10 increasing concentrations of STG-175 to quantify IC50 values.
Fig 1 Anti-PPIase and immunosuppressive activities of STG-175. A. Structures of cyclophilin inhibitors. Inhibition of CypA (B) and CypD (C) isomerase activities were assessed using the α-chymotrypsin-coupled assay. Each test compound was prepared at 10 concentrations (0.05–1000 nM). All solutions were equilibrated, and reactions conducted at 5°C. Reactions were initiated by mixing 95 μL reaction mix with 5 μL of the peptide to be cleaved and measuring OD405 nm at 6-sec intervals for 6 min. […] Enzyme catalyzed rate constants were calculated by subtracting the rate constant from uncatalyzed reactions (no CypA/D), and catalytic rate constants plotted as a function of inhibitor concentration to obtain IC50s. […] D. IL-2 promoter activation upon T-cell stimulation was determined using an engineered Jurkat T-cell line, which expresses betagalactosidase. […] The Y-axis values are expressed as percentage of activity. Data expressed as EC50s are representative of two independent experiments.

[1] = system: HCV GT1a, GT1b, GT2a, GT3a and GT4a replicons; assay: Panel of HCV replicon cell lines GT1a to 4a (summary statements); assay type: cell-based; conditions: Hepatitis C virus, read-out: EC50 range among HCV GTs (GT1a to 4a), multi-genotypic anti-HCV activity
[2] = system: subgenomic Con1 (GT1b) replicon in Huh-7 cells; conditions: 0.25, 0.5 or 1 μM, 7 passages with drug then 3 passages without; HCV RNA by RT-qPCR
Method: Cells were grown until they reached 90% confluence, trypsinized and re-seeded at the same cell concentration in a new 10-cm dish with the same drug concentration. […] Then drugs were removed to allow viral replication rebound to occur. At each passage, sample of cells were collected, RNA extracted according to the manufacturer's instructions and analyzed by RT-PCR for HCV RNA levels.
Fig 3 Replicon clearance, replication rebound and resistance analyses. […] Then drugs were removed to allow viral replication rebound to occur. At each passage, samples of cells were collected, RNA extracted and analyzed by RT-PCR for HCV RNA levels. B. Emergence of resistance: Con1 replicon Huh-7 cells were passaged 22 times in the absence or presence of STG-175 or selected DAAs. At each passage, sample of cells were collected, RNA extracted and analyzed by RT-PCR for HCV RNA levels. C. […] Data are expressed as number of HCV RNA copies per cell. […] Data are expressed as mean of relative light units and calculated EC50s are presented. […] E. Degree of resistance of D320E and Y321N Con1 variants: Left panel. Wild-type (WT), D320E and D320/Y321N NS5A Con1 RNA were electroporated into Huh7.5.1 cells and replication monitored over 8 days by quantifying the levels of intracellular HCV RNA. Right panel. Same as just above except that increasing concentrations of STG-175 were added at the time of the electroporation. […]

[3] = system: NS3i-resistant R155Q/A156T NS3 Con1 GT1b replicon; assay: Electroporated Con1 RNA replication in Huh7.5.1 cells (RT-qPCR), R155Q/A156T NS3; assay type: cell-based; conditions: Hepatitis C virus, Huh-7.5.1, 192 h, read-out: EC50 R155Q/A156T NS3
Description: The GT1b subgenomic firefly luciferase reporter replicon pFK-I389/NS3–3 was provided by R. Bartenschlager. The GT1B subgenomic NS3, NS5A and NS5B mutants were created via homologous recombination using the In-Fusion HD Cloning kit (Clontech) as we described previously. […] The in vitro transcription of wild-type and mutant Con1 RNA was accomplished using the T7 MEGAscript kit (Ambion) by following the manufacturer’s instructions. In vitro-transcribed RNAs were introduced into Huh7.5.1 cells by electroporation. Trypsinized cells were washed twice and resuspended in phosphate-buffered saline (PBS) (calcium-free and magnesium-free) at 1x 10^7 cells per ml. Ten micrograms of RNA for each mutant was mixed with 0.4 mL of cells in a 4-mm cuvette, and a Bio-Rad Gene Pulser system was used to deliver a single pulse at 0.27 kV, 100 ohms, and 960 μF. […] RNA transfection efficiency and HCV subgenomic replication were assessed by reverse transcription-quantitative PCR (RT-qPCR) and presented as genome equivalents (GE) per microgram of total RNA as described previously. We measured by RT-qPCR the replication of wild-type, STG-175-, NS5Ai-, NS3i- and NS5Bi-resistant mutants in the presence of increasing concentrations of SGT-175, daclatasvir, telaprevir, boceprevir and sofosbuvir over a period of 8 days.
Fig 5 Cross-resistance analyses. […] Data are expressed as log of GE/μg of total RNA. […]

[4] = system: HBV in mixed PBMCs, NTCP-Huh7 and Huh7.5.1 cells; assay: Dual/triple co-infection in cell co-cultures, HBV readout; assay type: cell-based, hepatitis B virus

T1 sequence (P30405 30-207): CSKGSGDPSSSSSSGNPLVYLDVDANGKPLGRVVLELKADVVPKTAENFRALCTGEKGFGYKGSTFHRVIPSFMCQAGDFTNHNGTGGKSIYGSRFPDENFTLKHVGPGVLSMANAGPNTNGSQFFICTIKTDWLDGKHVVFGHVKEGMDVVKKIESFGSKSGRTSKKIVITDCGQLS

CC=CCC(C)C(O)C1C(=O)NC(CC)C(=O)N(C)C(CSCCCCO)C(=O)N(C)C(CC(C)(C)O)C(=O)NC(C(C)C)C(=O)N(C)C(CC(C)C)C(=O)NC(C)C(=O)NC(C)C(=O)N(C)C(CC(C)C)C(=O)N(C)C(CC(C)C)C(=O)N(C)C(C(C)C)C(=O)N1C (stereo not drawn) [STG-175]
pIC50 (Human recombinant CypD): 8.89 | pEC50 [1]: 7.41 to 7.94 | viral replication rebound after drug removal [2]: no replication rebound was observed | pEC50 [3]: 7.87 | HBV infection in co-infection ([4]; STG-175 added together with virus): greatly attenuated | pre-established HBV infection in co-infection ([4]; added 3 days post-infection and then every 3 days): decreased the viral expansion
